From paper PMC10462762, “Chemoenzymatic synthesis of genetically-encoded multivalent liquid N-glycan arrays” (Nature Communications, 2023)

Target: T1, α-(2→6)-sialyltransferase from Photobacterium damselae (Pd26ST) (Photobacterium damselae, UniProt O66375)
T1 construct: gene bst; recombinant, expressed and purified as in supplementary information
T1 sequence (O66375 16-675): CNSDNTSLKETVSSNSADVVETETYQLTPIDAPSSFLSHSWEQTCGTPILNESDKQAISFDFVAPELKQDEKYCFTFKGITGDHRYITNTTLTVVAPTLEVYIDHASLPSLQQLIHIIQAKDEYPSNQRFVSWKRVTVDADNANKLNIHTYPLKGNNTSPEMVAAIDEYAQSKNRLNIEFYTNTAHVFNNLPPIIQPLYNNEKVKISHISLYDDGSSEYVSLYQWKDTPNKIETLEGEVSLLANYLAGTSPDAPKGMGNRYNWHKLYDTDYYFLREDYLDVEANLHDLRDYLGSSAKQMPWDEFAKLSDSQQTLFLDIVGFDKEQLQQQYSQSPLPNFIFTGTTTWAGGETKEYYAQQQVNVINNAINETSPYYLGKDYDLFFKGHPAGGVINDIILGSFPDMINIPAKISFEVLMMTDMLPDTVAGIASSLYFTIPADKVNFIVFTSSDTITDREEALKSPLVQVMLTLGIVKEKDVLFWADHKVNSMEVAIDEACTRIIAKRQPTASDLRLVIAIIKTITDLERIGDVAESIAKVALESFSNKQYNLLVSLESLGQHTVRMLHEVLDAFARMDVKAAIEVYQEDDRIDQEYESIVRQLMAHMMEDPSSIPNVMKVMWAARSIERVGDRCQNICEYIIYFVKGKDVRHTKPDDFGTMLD
Test: sialylation of phage-displayed LacNAc / Lac, MALDI-TOF MS
Format: biochemical
Settings: donor substrate; acceptor LacNAc- and lactose-phage; 9 h

## CC(=O)N[C@H]1[C@H]([C@H](O)[C@H](O)CO)O[C@](OP(=O)(O)OC[C@H]2O[C@@H](n3ccc(N)nc3=O)[C@H](O)[C@@H]2O)(C(=O)O)C[C@@H]1O [CMP-Neu5Ac]
  sialylation of phage-displayed LacNAc / Lac, MALDI-TOF MS: (Pd26ST) and cytidine-5’-monophosphate-N-acetylneuraminic acid (CMP-Neu5Ac)
